Laboratory results: ChEMBL document CHEMBL1201862, “PubChem BioAssay data set” (2004)
Active and inactive are the calls of the source.

How the values were obtained:
Prothrombin = Prothrombin (Homo sapiens, UniProt P00734); assay: Thrombin 1536 HTS Dose Response Confirmation. [Related pubchem assays: 1046 (Thrombin 1536 HTS; hits were confirmed in this assay)]; type: functional
Aspartyl aminopeptidase = biological target: T1, Aspartyl aminopeptidase (Plasmodium falciparum 3D7, UniProt Q8I2J3); assay: Counterscreen for inhibitors of M1 and M17 aminopeptidases: QFRET-based biochemical high throughput dose response assay for inhibitors of the Plasmodium falciparum M18 Aspartyl Aminopeptidase (PFM18AAP). [Related PubChem assays: 1619 (Screening assay (M17LAP inhibitors).), 1445 (Screening assay (M1AAP inhibitors).)]
T1 sequence (Q8I2J3 whole entry): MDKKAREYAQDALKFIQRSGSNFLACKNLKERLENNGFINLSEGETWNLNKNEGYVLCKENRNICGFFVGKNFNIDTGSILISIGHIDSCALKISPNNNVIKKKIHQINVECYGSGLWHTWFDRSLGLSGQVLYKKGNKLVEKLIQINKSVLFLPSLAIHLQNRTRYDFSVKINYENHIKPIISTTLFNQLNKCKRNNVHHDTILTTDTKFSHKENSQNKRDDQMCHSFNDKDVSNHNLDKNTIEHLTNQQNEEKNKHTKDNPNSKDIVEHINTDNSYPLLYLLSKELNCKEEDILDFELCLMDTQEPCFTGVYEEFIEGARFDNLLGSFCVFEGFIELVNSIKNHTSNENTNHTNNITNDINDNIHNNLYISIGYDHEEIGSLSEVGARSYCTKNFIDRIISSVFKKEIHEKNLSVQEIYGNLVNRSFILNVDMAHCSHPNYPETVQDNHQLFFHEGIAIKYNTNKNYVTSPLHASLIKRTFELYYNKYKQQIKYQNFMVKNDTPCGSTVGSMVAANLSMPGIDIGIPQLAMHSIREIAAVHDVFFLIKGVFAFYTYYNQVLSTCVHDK

Procathepsin L = Procathepsin L (Homo sapiens, UniProt P07711); assay: CTSL1 protease inhibition – biochemical, QFRET, 1536-well, counter-screen for M1/M17 aminopeptidase inhibitor project, dose response (AID 2214)
Procathepsin L, sequence (P07711 whole entry): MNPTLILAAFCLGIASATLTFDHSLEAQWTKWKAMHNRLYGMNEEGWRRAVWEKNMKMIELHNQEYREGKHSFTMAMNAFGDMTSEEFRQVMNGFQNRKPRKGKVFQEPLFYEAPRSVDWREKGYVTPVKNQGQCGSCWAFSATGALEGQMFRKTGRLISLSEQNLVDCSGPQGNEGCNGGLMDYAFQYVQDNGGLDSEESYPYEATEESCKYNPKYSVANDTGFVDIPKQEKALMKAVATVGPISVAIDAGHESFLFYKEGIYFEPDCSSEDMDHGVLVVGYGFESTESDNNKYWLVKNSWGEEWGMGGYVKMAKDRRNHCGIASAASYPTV

Leucine aminopeptidase = biological target: T2, Leucine aminopeptidase (Plasmodium falciparum 3D7, UniProt Q8IL11); assay: P. falciparum M17LAP inhibitors, primary screen, biochemical, fluorogenic H-Leu-NHMec substrate, 1536-well (AID 1619); type: functional
T2 sequence (Q8IL11 whole entry): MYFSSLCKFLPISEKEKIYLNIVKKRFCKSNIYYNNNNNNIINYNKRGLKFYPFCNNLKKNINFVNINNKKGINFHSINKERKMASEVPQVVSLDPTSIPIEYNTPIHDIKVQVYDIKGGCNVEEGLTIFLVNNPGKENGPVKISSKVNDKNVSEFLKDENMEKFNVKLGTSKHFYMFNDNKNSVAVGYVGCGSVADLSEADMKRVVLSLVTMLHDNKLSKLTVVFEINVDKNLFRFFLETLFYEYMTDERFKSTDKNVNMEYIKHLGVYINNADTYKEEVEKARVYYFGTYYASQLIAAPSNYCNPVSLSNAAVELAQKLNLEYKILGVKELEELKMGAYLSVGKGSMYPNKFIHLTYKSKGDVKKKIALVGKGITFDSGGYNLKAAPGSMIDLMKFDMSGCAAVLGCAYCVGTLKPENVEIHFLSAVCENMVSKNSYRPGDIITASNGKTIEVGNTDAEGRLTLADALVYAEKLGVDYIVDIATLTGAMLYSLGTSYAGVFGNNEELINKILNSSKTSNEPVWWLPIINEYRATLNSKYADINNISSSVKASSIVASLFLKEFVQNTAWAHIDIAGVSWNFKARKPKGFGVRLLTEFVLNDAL

[1] = biological target: Glyceraldehyde-3-phosphate dehydrogenase (Homo sapiens, UniProt P04406)
Glyceraldehyde-3-phosphate dehydrogenase, sequence (P04406 whole entry): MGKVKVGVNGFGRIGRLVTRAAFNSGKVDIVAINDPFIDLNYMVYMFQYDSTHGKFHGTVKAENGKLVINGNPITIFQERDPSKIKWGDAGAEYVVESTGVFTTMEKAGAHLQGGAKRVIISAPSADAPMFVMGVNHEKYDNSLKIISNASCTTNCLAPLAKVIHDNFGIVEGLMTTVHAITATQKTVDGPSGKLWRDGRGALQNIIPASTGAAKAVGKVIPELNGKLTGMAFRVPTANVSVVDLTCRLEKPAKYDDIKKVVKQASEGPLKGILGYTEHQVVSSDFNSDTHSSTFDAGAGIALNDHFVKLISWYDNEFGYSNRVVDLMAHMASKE

[2] = HEK-293T cell viability reduction – luminescence, B-cell screen hits, cytotoxicity control for BCR NF-kB inhibitor project, dose response (AID 489021); type: functional, cell-based;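 note: HEK-293T cells carrying an NF-kB luciferase reporter; cells exposed to compound for about 14 hours before viability readout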
[3] = biological target: T3, Heat shock factor protein 1 (Mus musculus, UniProt P38532); assay: decrease of HSF1-responsive luciferase luminescence – cell-based, NIH3T3, dose retest, confirmation (AID 2382); type: functional;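 note: NIH3T3 fibroblasts with HSF1-driven luciferase reporter stressed by proteasome inhibitor MG132; luminescence from HSF1-driven luciferase expression after 8 hours of MG132 stress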
T3 sequence (P38532 whole entry): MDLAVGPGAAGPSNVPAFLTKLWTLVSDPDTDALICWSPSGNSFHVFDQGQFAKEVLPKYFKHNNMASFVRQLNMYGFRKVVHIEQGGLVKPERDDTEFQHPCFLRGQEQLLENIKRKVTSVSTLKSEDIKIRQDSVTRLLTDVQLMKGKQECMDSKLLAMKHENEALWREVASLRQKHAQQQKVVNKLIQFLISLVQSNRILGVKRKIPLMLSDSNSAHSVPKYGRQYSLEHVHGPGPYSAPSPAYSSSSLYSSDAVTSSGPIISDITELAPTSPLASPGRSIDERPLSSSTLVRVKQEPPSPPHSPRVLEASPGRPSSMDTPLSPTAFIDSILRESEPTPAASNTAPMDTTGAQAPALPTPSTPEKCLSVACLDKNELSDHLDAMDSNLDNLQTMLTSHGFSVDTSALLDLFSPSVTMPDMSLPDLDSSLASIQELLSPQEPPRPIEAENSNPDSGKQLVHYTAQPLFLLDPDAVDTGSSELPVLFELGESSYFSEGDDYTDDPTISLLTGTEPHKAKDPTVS

[4] = biological target: Luciferin 4-monooxygenase (Photinus pyralis, UniProt P08659); assay: Counter Screen for Luciferase-based Assay Positives. [Related pubchem assays: 620, 618, 411 ]
Luciferin 4-monooxygenase, sequence (P08659 whole entry): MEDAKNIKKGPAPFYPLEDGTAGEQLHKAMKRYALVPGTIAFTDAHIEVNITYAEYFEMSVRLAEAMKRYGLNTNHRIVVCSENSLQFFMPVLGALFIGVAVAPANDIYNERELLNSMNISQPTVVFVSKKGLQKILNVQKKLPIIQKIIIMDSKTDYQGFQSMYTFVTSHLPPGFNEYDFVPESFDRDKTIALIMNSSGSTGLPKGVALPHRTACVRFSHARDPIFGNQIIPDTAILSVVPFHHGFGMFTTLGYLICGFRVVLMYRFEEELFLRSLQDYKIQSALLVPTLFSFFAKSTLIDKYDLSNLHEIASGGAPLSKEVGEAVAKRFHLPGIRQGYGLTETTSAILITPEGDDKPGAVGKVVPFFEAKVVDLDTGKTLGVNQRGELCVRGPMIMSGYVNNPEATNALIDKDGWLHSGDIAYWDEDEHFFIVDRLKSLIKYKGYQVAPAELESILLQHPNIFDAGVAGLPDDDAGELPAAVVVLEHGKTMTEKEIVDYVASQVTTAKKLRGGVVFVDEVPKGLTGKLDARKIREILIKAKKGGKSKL

HT-1080 = assay: HT1080 cell viability loss – fluorescence readout (AID 620); type: functional, cell-based; conditions: Homo sapiens
[5] = blockade of melanocortin 4 receptor signaling – cell-based, plate reader, cherry pick, counter-screen for LGR2 antagonist project, dose response (AID 743444); type: functional;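 note: transfected HEK 293 cells stimulated with alpha-MSH peptide; potency of inhibitors of the alpha-MSH evoked signal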
[6] = toxicity toward HepG2 liver cells – cell-based, plate reader, cherry-pick, antagonist series, cytotoxicity control, dose response (AID 743416); type: functional
[7] = blockers of bursicon-stimulated LGR2 cAMP reporter – cell-based, HEK293, CRE-luciferase reporter, cherry pick, set 2, dose response (AID 743343); type: functional;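 note: transfected cells were stimulated with diluted bursicon conditioned medium after compound addition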
[8] = microbe, parasite or virus in culture; type: functional; conditions: Mycobacterium tuberculosis
[9] = viability loss in HEK293 cells – cell-based, plate reader, cherry-picked samples, cytotoxicity control, dose response (AID 743446); type: functional

O=C(CCC1CCCN(C(=O)C2(c3ccccc3)CC2)C1)N1CCN(c2ccccn2)CC1 (configuration not stated)
IC50 (Prothrombin): > 50 µM (not active)

N#Cc1c(NC(=O)C2CC(Cl)=CCC2C(=O)O)sc2c1CCCC2 (configuration not stated)
IC50 (Aspartyl aminopeptidase): > 73.5 µM (not active)
IC50 (Procathepsin L): > 59.6 µM (not active)
IC50 (Leucine aminopeptidase): < 1 µM (active)

CCCCN1C(=O)NC(=O)C2(Cc3c(nc4ccccn4c3=O)N3CCc4ccccc4C32)C1=O (configuration not stated)
IC50 (Prothrombin): 5.42 µM (active)

O=C(O)CCSc1nc2ccccc2s1
IC50 [1]: > 100 µM (not active)
IC50 [2]: > 80 µM (inactive)
EC50 [3]: 6.83 µM (active)
EC50 [4]: > 100 µM (not active)
EC50 (HT-1080): > 50 µM (not active)

CC(C)(C)c1ccc(-c2nc(-c3ccncc3)no2)cc1
AC50 [5]: 20.8 µM (active)
AC50 [6]: 30.1 µM (active)
AC50 [7]: 12.9 µM (active)
CC50 [8]: 34.2 µM (active)
EC50 [4]: 0.57 µM (active)
EC50 (HT-1080): > 50 µM (not active)
AC50 [9]: > 52 µM (inactive)
